According to PMC3551916, “The Effects of Methionine Acquisition and Synthesis on Streptococcus Pneumoniae Growth and Virulence” (PLoS ONE, 2013):

Legend:
MetQ [1] = target: T1, MetQ (Streptococcus pneumoniae, UniProt A0A0H2ZPC6); experiment: tryptophan fluorescence spectroscopy titration; assay type: binding
T1 construct: gene SPD_0151; His6-MetQ (Sp_0149) without the predicted N-terminal signal peptide, ligand free, cloned from strain D39

MetQ [2] = target: T1, MetQ; experiment: isothermal titration calorimetry (also tryptophan fluorescence, KD […]); assay type: binding

T1 sequence (A0A0H2ZPC6 entry or part of it): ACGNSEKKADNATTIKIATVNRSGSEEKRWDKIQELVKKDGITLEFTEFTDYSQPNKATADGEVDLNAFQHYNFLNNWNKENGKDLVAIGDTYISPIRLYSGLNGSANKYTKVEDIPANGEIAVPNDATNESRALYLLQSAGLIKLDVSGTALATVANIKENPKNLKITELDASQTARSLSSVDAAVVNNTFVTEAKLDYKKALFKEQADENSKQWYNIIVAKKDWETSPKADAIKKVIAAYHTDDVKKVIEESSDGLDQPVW

SMILES | Kd (MetQ [1]) [µM] | Kd (MetQ [2]) [µM]
NC(CCS)C(=O)O (racemic) [DL-homocysteine] | 7 ± 0.26 | –
CSCCC(C)(N)C(=O)O (racemic) [α-methyl-DL-methionine] | 30.1 ± 0.86 | –
CSCC[C@@H](N)C(=O)O [D-methionine] | 27.4 ± 0.96 | –
CSCC[C@H](N)C(=O)O [L-methionine] | – | 0.0266 ± 0.00128
